Read-outs that look alike come from different tables or passages of the source.
[1] = RDE (Regimen 1B 120 mg) (n = 9)

COc1ncc(-c2nc3c(n2C(C)C)[C@H](c2ccc(Cl)cc2)N(c2cc(Cl)cn(C)c2=O)C3=O)c(OC)n1 [HDM201, (S)-5-(5-Chloro-1-methyl-2-oxo-1,2-dihydro-pyridin-3-yl)-6-(4-chloro-phenyl)-2-(2,4-dimethoxy-pyrimidin-5-yl)-1-isopropyl-5,6-dihydro-1H-pyrrolo[3,4-d]imidazol-4-one]
Nausea, Grade 3/4 (1B all subjects, N=20): 1 n (%) | Neuralgia, All Grades (1B all subjects, N=20): 1 n (%) | Neuralgia, Grade 3/4 (1B all subjects, N=20): 0 n (%) | Neutropenia, All Grades (1B all subjects, N=20): 6 n (%) | Neutropenia, Grade 3/4 (1B all subjects, N=20): 5 n (%) | Neutrophil Count Decreased, All Grades (1B all subjects, N=20): 3 n (%) | Neutrophil Count Decreased, Grade 3/4 (1B all subjects, N=20): 2 n (%) | Oedema, All Grades (1B all subjects, N=20): 1 n (%) | Oedema, Grade 3/4 (1B all subjects, N=20): 0 n (%) | Oral Candidiasis, All Grades (1B all subjects, N=20): 1 n (%) | Oral Candidiasis, Grade 3/4 (1B all subjects, N=20): 0 n (%) | Platelet Count Decreased, All Grades (1B all subjects, N=20): 4 n (%) | Platelet Count Decreased, Grade 3/4 (1B all subjects, N=20): 0 n (%) | Pruritus, All Grades (1B all subjects, N=20): 1 n (%) | Pruritus, Grade 3/4 (1B all subjects, N=20): 0 n (%) | Thrombocytopenia, All Grades (1B all subjects, N=20): 5 n (%) | Thrombocytopenia, Grade 3/4 (1B all subjects, N=20): 2 n (%) | Total, All Grades (1B all subjects, N=20): 19 n (%) | Total, Grade 3/4 (1B all subjects, N=20): 9 n (%) | Vomiting, All Grades (1B all subjects, N=20): 5 n (%) | Vomiting, Grade 3/4 (1B all subjects, N=20): 0 n (%) | Weight Decreased, All Grades (1B all subjects, N=20): 1 n (%) | Weight Decreased, Grade 3/4 (1B all subjects, N=20): 0 n (%) | White Blood Cell Count Decreased, All Grades (1B all subjects, N=20): 3 n (%) | White Blood Cell Count Decreased, Grade 3/4 (1B all subjects, N=20): 0 n (%) | Anemia, All Grades (All Regimens (N = 85)): 25 (29) n (%) | Anemia, Grade 3/4 (All Regimens (N = 85)): 10 n (%) | Decreased Appetite, All Grades (All Regimens (N = 85)): 19 (22) n (%) | Decreased Appetite, Grade 3/4 (All Regimens (N = 85)): 2 n (%) | Diarrhea, All Grades (All Regimens (N = 85)): 13 (15) n (%) | Diarrhea, Grade 3/4 (All Regimens (N = 85)): 0 n (%) | Fatigue, All Grades (All Regimens (N = 85)): 19 (22) n (%) | Fatigue, Grade 3/4 (All Regimens (N = 85)): 2 n (%) | Leukopenia, All Grades (All Regimens (N = 85)): 12 (14) n (%) | Leukopenia, Grade 3/4 (All Regimens (N = 85)): 8 n (%) | Nausea, All Grades (All Regimens (N = 85)): 44 (52) n (%) | Nausea, Grade 3/4 (All Regimens (N = 85)): 1 n (%) | Neutropenia, All Grades (All Regimens (N = 85)): 18 (21) n (%) | Neutropenia, Grade 3/4 (All Regimens (N = 85)): 15 n (%) | Platelet Count Decreased, All Grades (All Regimens (N = 85)): 15 (18) n (%) | Platelet Count Decreased, Grade 3/4 (All Regimens (N = 85)): 7 n (%) | Thrombocytopenia, All Grades (All Regimens (N = 85)): 27 (32) n (%) | Thrombocytopenia, Grade 3/4 (All Regimens (N = 85)): 14 n (%) | Vomiting, All Grades (All Regimens (N = 85)): 19 (22) n (%) | Vomiting, Grade 3/4 (All Regimens (N = 85)): 0 n (%) | White blood cell count decrease, All Grades (All Regimens (N = 85)): 11 (13) n (%) | White blood cell count decrease, Grade 3/4 (All Regimens (N = 85)): 3 n (%) | Anemia, All Grades [1]: 2 (22.2) n(%) | Anemia, G3/4 [1]: 0 n(%) | Leukopenia/white blood cell count decreased, All Grades [1]: 3 (33.3) n(%) | Leukopenia/white blood cell count decreased, G3/4 [1]: 0 n(%) | Neutropenia/neutrophil count decreased, All Grades [1]: 2 (22.2) n(%) | Neutropenia/neutrophil count decreased, G3/4 [1]: 2 (22.2) n(%) | Thrombocytopenia/platelet count decreased, All Grades [1]: 4 (44.4) n(%) | Thrombocytopenia/platelet count decreased, G3/4 [1]: 0 n(%) | Anemia, All Grades (Regimen 1A (n = 26)): 10 (38.5) n(%) | Anemia, G3/4 (Regimen 1A (n = 26)): 3 (11.5) n(%) | Leukopenia/white blood cell count decreased, All Grades (Regimen 1A (n = 26)): 9 (34.6) n(%) | Leukopenia/white blood cell count decreased, G3/4 (Regimen 1A (n = 26)): 5 (19.2) n(%) | Neutropenia/neutrophil count decreased, All Grades (Regimen 1A (n = 26)): 9 (34.6) n(%) | Neutropenia/neutrophil count decreased, G3/4 (Regimen 1A (n = 26)): 8 (30.7) n(%) | Thrombocytopenia/platelet count decreased, All Grades (Regimen 1A (n = 26)): 12 (46.2) n(%) | Thrombocytopenia/platelet count decreased, G3/4 (Regimen 1A (n = 26)): 8 (30.8) n(%) | Anemia, All Grades (Regimen 1B (n = 20)): 5 (25.0) n(%) | Anemia, G3/4 (Regimen 1B (n = 20)): 0 n(%) | Leukopenia/white blood cell count decreased, All Grades (Regimen 1B (n = 20)): 5 (25.0) n(%) | Leukopenia/white blood cell count decreased, G3/4 (Regimen 1B (n = 20)): 1 (5.0) n(%) | Neutropenia/neutrophil count decreased, All Grades (Regimen 1B (n = 20)): 8 (40.0) n(%) | Neutropenia/neutrophil count decreased, G3/4 (Regimen 1B (n = 20)): 6 (30.0) n(%) | Thrombocytopenia/platelet count decreased, All Grades (Regimen 1B (n = 20)): 9 (45.0) n(%) | Thrombocytopenia/platelet count decreased, G3/4 (Regimen 1B (n = 20)): 2 (10.0) n(%) | Anemia, All Grades (Regimen 2A (n = 20)): 6 (30.0) n(%) | Anemia, G3/4 (Regimen 2A (n = 20)): 4 (20.0) n(%) | Leukopenia/white blood cell count decreased, All Grades (Regimen 2A (n = 20)): 4 (20.0) n(%) | Leukopenia/white blood cell count decreased, G3/4 (Regimen 2A (n = 20)): 3 (15.0) n(%) | Neutropenia/neutrophil count decreased, All Grades (Regimen 2A (n = 20)): 5 (25.0) n(%) | Neutropenia/neutrophil count decreased, G3/4 (Regimen 2A (n = 20)): 4 (20.0) n(%) | Thrombocytopenia/platelet count decreased, All Grades (Regimen 2A (n = 20)): 10 (50.0) n(%) | Thrombocytopenia/platelet count decreased, G3/4 (Regimen 2A (n = 20)): 7 (35.0) n(%) | Anemia, All Grades (Regimen 2C (n = 19)): 4 (21.1) n(%) | Anemia, G3/4 (Regimen 2C (n = 19)): 3 (15.8) n(%) | Leukopenia/white blood cell count decreased, All Grades (Regimen 2C (n = 19)): 2 (10.5) n(%) | Leukopenia/white blood cell count decreased, G3/4 (Regimen 2C (n = 19)): 1 (5.3) n(%) | Neutropenia/neutrophil count decreased, All Grades (Regimen 2C (n = 19)): 3 (15.8) n(%) | Neutropenia/neutrophil count decreased, G3/4 (Regimen 2C (n = 19)): 2 (10.5) n(%) | Thrombocytopenia/platelet count decreased, All Grades (Regimen 2C (n = 19)): 8 (42.1) n(%) | Thrombocytopenia/platelet count decreased, G3/4 (Regimen 2C (n = 19)): 3 (15.8) n(%) | nausea, all grade, patients (all 4 regimens, 44/85): 52% | Grade 3/4 hematological toxicities suspected to be study-drug related, patients (all treatment regimens): ≤ 35% | overall incidence of grade 3/4 thrombocytopenia compared across the 4 regimens (regimen 1B): lowest | dose interruptions or discontinuations due to thrombocytopenia (regimen 1B 120 mg): no dose interruptions or discontinuations | grade 3/4 neutropenia (regimen 1B 120 mg): 2 out of 9 | non-hematologic dose limiting toxicities or grade 3/4 AEs (regimen 1B 120 mg): no non-hematologic dose limiting toxicities or grade 3/4 AEs | platelet transfusions required (regimen 1B 120 mg): no patients required platelet transfusions | time to first occurrence of G4 thrombocytopenia (regimen 1B 150 mg): > 100 days | therapeutic index among the 4 dosing regimens (regimen 1B (d1 and d8 of 4 w cycle)): most favorable therapeutic index | lipase increase, CTCAE grade 3/4, patients (regimen 1B, 20 patients): 15% | nausea, all grades, patients (regimen 1B, 20 patients): 60.0% | neutropenia/neutrophil count decreased, CTCAE grade 3/4, patients (regimen 1B, 20 patients): 30.0% | neutropenia/neutrophil count decreased, all grades, patients (regimen 1B, 20 patients): 40.0% | patients with at least one CTCAE grade 3/4 AE suspected to be treatment-related (regimen 1B, 20 patients): 45.0% | thrombocytopenia/platelet count decrease, CTCAE grade 3/4, patients (regimen 1B, 20 patients): 10.0% | thrombocytopenia/platelet count decreased, all grades, patients (regimen 1B, 20 patients): 45.0% | vomiting, all grades, patients (regimen 1B, 20 patients): 25.0%
